The record followed here is the NIST ThermoML archive (doi:10.1016/j.fluid.2013.01.011).

Structures are written as SMILES. ± gives the expanded uncertainty stated by the source.

For series [1] the following is noted: 298.15 K; 101.33 kPa; Liquid; Vibrating tube method.
Series [2] is described as follows: excess molar enthalpy (molar enthalpy of mixing); xn = mol fraction of the nth substance listed. As to conditions: 298.15 K, 101 kPa, Liquid, Calvet calorimetry.

As usually defined, the mass density is mass per unit of volume. Take `CCCCCC(C)=O` [2-heptanone]: the mass density in series [1] came to 811.162 ± 0.24 kg/m3.

As for `CC(C)=O` [acetone], the mass density in series [1] was 785.094 ± 0.13 kg/m3.

Consider `CCC(C)=O` [butanone], for which the mass density in series [1] is 799.969 ± 0.15 kg/m3.

Turning to `CCCCNCCCC` [dibutylamine], the mass density in series [1] is recorded as 755.528 ± 0.16 kg/m3.

With `CCCCNCCCC` [dibutylamine] + CC(C)=O, the excess molar enthalpy came to 0.106 ± 0.00239 kcal/mol in series [2] (x1 = 0.1101); 0.165 ± 0.00359 kcal/mol in series [2] (x1 = 0.2103); 0.204 ± 0.0043 kcal/mol in series [2] (x1 = 0.2999); 0.22 ± 0.00478 kcal/mol in series [2] (x1 = 0.398); 0.224 ± 0.00478 kcal/mol in series [2] (x1 = 0.4977); 0.206 ± 0.00454 kcal/mol in series [2] (x1 = 0.6088). Also, the excess molar enthalpy was 0.181 ± 0.00382 kcal/mol in series [2] (x1 = 0.6999), 0.143 ± 0.00311 kcal/mol in series [2] (x1 = 0.79) and 0.0827 ± 0.00191 kcal/mol in series [2] (x1 = 0.8913).

As for `CCCCNCCCC` [dibutylamine] + CCC(C)=O, the excess molar enthalpy in series [2] (x1 = 0.1142) came out at 0.0655 ± 0.00143 kcal/mol; in series [2] (x1 = 0.2078), 0.102 ± 0.00215 kcal/mol; in series [2] (x1 = 0.2985), 0.128 ± 0.00287 kcal/mol; in series [2] (x1 = 0.3978), 0.144 ± 0.00311 kcal/mol; in series [2] (x1 = 0.4956), 0.148 ± 0.00311 kcal/mol; in series [2] (x1 = 0.6001) it was 0.142 ± 0.00311 kcal/mol. Further, the results for the excess molar enthalpy in series [2] (x1 = 0.693), in series [2] (x1 = 0.7846) and in series [2] (x1 = 0.8802) were 0.126 ± 0.00263 kcal/mol, 0.0997 ± 0.00215 kcal/mol and 0.0645 ± 0.00143 kcal/mol, respectively.

For `CCCCNCCCC` [dibutylamine] + CCCC(C)=O, the excess molar enthalpy in series [2] (x1 = 0.1111) is 0.0406 ± 0.000956 kcal/mol; in series [2] (x1 = 0.2106), 0.0684 ± 0.00143 kcal/mol; in series [2] (x1 = 0.3072), 0.0908 ± 0.00191 kcal/mol; in series [2] (x1 = 0.3973), 0.102 ± 0.00215 kcal/mol; in series [2] (x1 = 0.4942), 0.108 ± 0.00239 kcal/mol; in series [2] (x1 = 0.6052) it was 0.104 ± 0.00239 kcal/mol. The values for the excess molar enthalpy in series [2] (x1 = 0.6999), in series [2] (x1 = 0.7881) and in series [2] (x1 = 0.8848) were 0.0937 ± 0.00215 kcal/mol, 0.0762 ± 0.00167 kcal/mol and 0.0485 ± 0.0012 kcal/mol, respectively.

Turning to `CCCCNCCCC` [dibutylamine] + CCCCCC(C)=O, the excess molar enthalpy in series [2] (x1 = 0.1114) was 0.0206 ± 0.000478 kcal/mol; in series [2] (x1 = 0.2189), 0.0392 ± 0.000956 kcal/mol; in series [2] (x1 = 0.3057), 0.0519 ± 0.0012 kcal/mol; in series [2] (x1 = 0.4038), 0.0607 ± 0.00143 kcal/mol; in series [2] (x1 = 0.5087) it was 0.0664 ± 0.00143 kcal/mol; in series [2] (x1 = 0.5962) it was 0.0664 ± 0.00143 kcal/mol. Besides, the excess molar enthalpy in series [2] (x1 = 0.7053) was 0.0612 ± 0.00143 kcal/mol; in series [2] (x1 = 0.8017), 0.0497 ± 0.0012 kcal/mol; in series [2] (x1 = 0.8891), 0.033 ± 0.000717 kcal/mol.

`CCCNCCC` [dipropylamine]: the mass density in series [1] turned out to be 733.723 ± 0.25 kg/m3.

Regarding `CCCNCCC` [dipropylamine] + CC(C)=O, the excess molar enthalpy in series [2] (x1 = 0.1063) is 0.0652 ± 0.00143 kcal/mol; in series [2] (x1 = 0.2076) it was 0.113 ± 0.00239 kcal/mol; in series [2] (x1 = 0.3036), 0.14 ± 0.00311 kcal/mol; in series [2] (x1 = 0.3982), 0.151 ± 0.00335 kcal/mol; in series [2] (x1 = 0.4932), 0.153 ± 0.00335 kcal/mol; in series [2] (x1 = 0.5821), 0.147 ± 0.00311 kcal/mol. Besides, the excess molar enthalpy in series [2] (x1 = 0.6773) was determined as 0.129 ± 0.00287 kcal/mol; in series [2] (x1 = 0.7652), 0.104 ± 0.00215 kcal/mol; in series [2] (x1 = 0.8488) it was 0.0707 ± 0.00167 kcal/mol.

With `CCCNCCC` [dipropylamine] + CCC(C)=O, the excess molar enthalpy in series [2] (x1 = 0.1042) was determined as 0.037 ± 0.000956 kcal/mol; in series [2] (x1 = 0.1978), 0.0605 ± 0.00143 kcal/mol; in series [2] (x1 = 0.3016) it was 0.0798 ± 0.00167 kcal/mol; in series [2] (x1 = 0.3852) it was 0.0884 ± 0.00191 kcal/mol; in series [2] (x1 = 0.495) it was 0.0949 ± 0.00215 kcal/mol; in series [2] (x1 = 0.5459) it was 0.0946 ± 0.00215 kcal/mol. Also, the excess molar enthalpy in series [2] (x1 = 0.5908) was 0.0937 ± 0.00215 kcal/mol; in series [2] (x1 = 0.6833) it was 0.0851 ± 0.00191 kcal/mol; in series [2] (x1 = 0.7647) it was 0.0715 ± 0.00167 kcal/mol; in series [2] (x1 = 0.8559) it was 0.0488 ± 0.0012 kcal/mol.

In the case of `CCCNCCC` [dipropylamine] + CCCC(C)=O, the excess molar enthalpy in series [2] (x1 = 0.1056) amounted to 0.0208 ± 0.000478 kcal/mol; in series [2] (x1 = 0.1981), 0.0368 ± 0.000956 kcal/mol; in series [2] (x1 = 0.3098), 0.0519 ± 0.0012 kcal/mol; in series [2] (x1 = 0.3988), 0.0621 ± 0.00143 kcal/mol; in series [2] (x1 = 0.5023) it was 0.0672 ± 0.00143 kcal/mol; in series [2] (x1 = 0.5922) it was 0.0679 ± 0.00143 kcal/mol. The excess molar enthalpy is 0.0638 ± 0.00143 kcal/mol in series [2] (x1 = 0.6821), 0.0545 ± 0.0012 kcal/mol in series [2] (x1 = 0.781) and 0.0382 ± 0.000956 kcal/mol in series [2] (x1 = 0.8693).

For the compound `CCCNCCC` [dipropylamine] + CCCCCC(C)=O, the excess molar enthalpy in series [2] (x1 = 0.1145) came out at 0.0112 ± 0.000478 kcal/mol; in series [2] (x1 = 0.212), 0.021 ± 0.000478 kcal/mol; in series [2] (x1 = 0.3072) it was 0.0282 ± 0.000717 kcal/mol; in series [2] (x1 = 0.4034) it was 0.0342 ± 0.000717 kcal/mol; in series [2] (x1 = 0.4993), 0.0387 ± 0.000956 kcal/mol; in series [2] (x1 = 0.6017), 0.0406 ± 0.000956 kcal/mol. Further, the results for the excess molar enthalpy in series [2] (x1 = 0.6872), in series [2] (x1 = 0.7868) and in series [2] (x1 = 0.8796) were 0.038 ± 0.000956 kcal/mol, 0.0327 ± 0.000717 kcal/mol and 0.0229 ± 0.000478 kcal/mol, respectively.

As to `CCCC(C)=O` [pentan-2-one], the mass density in series [1] stood at 801.522 ± 0.24 kg/m3.
